Test results from patent publication US7794712B2, “Production of mutant strain of Aspergillus fumigatus, method of assay for inhibiting siderophore biosynthesis and diagnostic method for detecting likely Aspergillus fumigatus infection” (priority 2004, dated 2010).
Values joined by “and” are separate entries in the source; they are usually repeats but may differ in a detail not shown here. Equal values may be shown once. Non-standard residues stand in square brackets, D forms with d. Residues, ends and D or L forms follow the SMILES beside them. ξ: configuration not given here. Orn(N5-OH,N5-Ac) = CC(=O)N(O)CCC[C@H](N)C(=O)O; ξOrn(N(OH)Ac) = CC(=O)N(O)CCCC(N)C(=O)O

How the values were obtained:
human holotransferrin = human holotransferrin (Homo sapiens, UniProt P02787); type: biochemical; settings: for Concentration at which complete absence of holotransferrin was observed / Concentration able to remove some iron from holotransferrin: holotransferrin 25 μM, 16 h, 37° C., pH 7.4; for Affinity of iron removal from holotransferrin: compared with ferrichrome
human holotransferrin, sequence (P02787 20-698): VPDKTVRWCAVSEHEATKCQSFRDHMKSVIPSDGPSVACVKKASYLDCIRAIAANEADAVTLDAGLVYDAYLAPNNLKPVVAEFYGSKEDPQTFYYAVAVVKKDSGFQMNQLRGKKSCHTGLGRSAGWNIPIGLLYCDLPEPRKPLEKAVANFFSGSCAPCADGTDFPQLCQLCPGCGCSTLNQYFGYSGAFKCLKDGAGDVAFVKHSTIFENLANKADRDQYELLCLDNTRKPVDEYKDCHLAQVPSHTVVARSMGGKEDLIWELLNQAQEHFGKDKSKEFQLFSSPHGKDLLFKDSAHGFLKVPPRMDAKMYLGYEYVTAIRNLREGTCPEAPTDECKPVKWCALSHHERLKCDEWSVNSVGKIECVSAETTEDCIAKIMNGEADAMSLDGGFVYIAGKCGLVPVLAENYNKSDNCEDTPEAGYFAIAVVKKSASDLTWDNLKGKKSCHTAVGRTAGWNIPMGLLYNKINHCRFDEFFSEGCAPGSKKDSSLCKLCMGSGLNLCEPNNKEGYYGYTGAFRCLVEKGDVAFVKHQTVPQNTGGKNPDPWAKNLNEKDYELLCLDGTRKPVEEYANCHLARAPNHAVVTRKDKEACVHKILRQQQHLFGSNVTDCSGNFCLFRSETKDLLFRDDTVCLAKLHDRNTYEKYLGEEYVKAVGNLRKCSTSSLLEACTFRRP
Experimental: Purified desferri-siderophores and commercially available ferrichrome were serially diluted to final concentrations of 2.5 mM, 250 μM, 25 μM, 2.5 μM and 250 nM (lanes 1-5, respectively). Siderophores were incubated with 12.5 μM human holo-Tf at 37 degrees for 16 hours. Iron saturation of transferrin was assessed by urea-PAGE (13).
Holotransferrin also was incubated with commercially available desferriferrichrome for comparison. The iron saturation of transferrin was monitored by urea-PAGE. Desferritriacetylfusarinine C, desferriferricrocin, and desferriferrichrome were diluted to concentrations ranging from 5 mM to 5 μM and incubated with holotransferrin (25 μM) in 50 mM Tris-150 mM NaCl-20 mM NaHCO3 (pH 7.4) buffer for 16 h at 37° C. The extent of iron saturation of transferrin at the end of the incubation period was determined by urea-PAGE.

[1] = system: A. fumigatus wild type (ATCC 13073); experiment: Growth (dry weight) in supplemented GA medium, parental / wild type strain; type: cell-based, Aspergillus fumigatus
Experimental: (§1) In this example the growth of various strains of A. fumigatus was monitored as follows. In a first experiment, A. fumigatus was inoculated into 5 ml volumes of YG medium or 5 ml of modified Grimm-Allen (GA) medium (1 g/L KHSO4, 3 g/L K2HPO4, 3 g/L (NH4)SO4, 20 g/L sucrose, 1 g/L citric acid, 2 mg/L thiamine, 20 μg/L CuSO4, 1 mg/L MnSO4, 5.5 mg/L ZnSO4, 810 mg/L MgSO4, pH 6.9) in 25 ml acid-washed flasks at a concentration of […]. GA medium was supplemented with […] FeCl3 where described. Human serum (male) was obtained from Sigma, stored frozen until use and added to media at a concentration of 10%. DesferriTAF and desferriferricrocin were purified from A. fumigatus cultures as described above and treated with 8-hydroxyquinoline to remove all bound iron. Siderophore solutions were filter-sterilized prior to addition to media.
(§2) In a second experiment, A. fumigatus was innoculated into 1 ml volumes of YM medium or 1 ml of the modified GA medium described above.
(§3) Alternatively, dry weights were measured by filtering the contents of each tube through pre-weighed, pre-dried Whatman #1 filters and rinsing thoroughly with distilled water. Filters were oven-dried and re-weighed.

A. fumigatus ΔsidA = experiment: Growth (dry weight) in supplemented GA medium, ΔsidA strain; type: cell-based, Aspergillus fumigatus; settings: for Restoration of growth of ΔsidA in the presence of human serum: 50 μM siderophore
Experimental: as §1, §2, §3

A. fumigatus ΔsidA^R = experiment: Growth (dry weight) in supplemented GA medium, rescued strain ΔsidA^R; type: cell-based, Aspergillus fumigatus
Experimental: as §1, §2, §3

A. fumigatus 13073 = experiment: Siderophore secretion inhibitor assay (A440 after FeCl3 addition); type: cell-based, Aspergillus fumigatus; settings: 3 days
From the text: In this example 96-well sterile polystyrene filter plates as described above with white Duropore membranes at the base of the plate (Millipore) were used. The plates include a thick plastic layer under the wells, which has a one-way valve function that directs fluid into a receiving 96-well plate when the filter plate is subjected to a vacuum manifold or a centrifugal force. This layer can be peeled off if the membranes are to be sampled (punched) later.
Cultures were set up in the filter plates, with controls and inhibitors to be tested. After inclubation, culture fluid was pulled into a 96-well receiver plate, using the Beckman centrifuge and a JS 5.3 rotor designed to take 96-well plates. FeCl3 was added to the receiver plates, and A430 (general siderophores) or A440 (max for TAF) was read. Growth was scored in the plate by reading A600.
To test this method, different antibiotics were used to show inhibition of siderophore production by A. fumigatus 13073, as no inhibitors for the SidA gene product are currently known. Suitable ranges of concentrations of amphotericin B (fungizone), hygromycin, and nystatin were calculated based on the literature. Spores were harvested from A. fumigatus 13073 into PBS Tween, then washed once with PBS and counted. They were then diluted into Neilands' medium (without citrate) to give solutions of 2×10^5 and 2×10^6/ml. 100 μl of 2× spores and 100 μl of 2× antibiotics to yield a volume of 200 μl of Neilands' medium in each well, with the desired final concentrations of spores, 10^5 or 10^6/ml.
Antibiotics were prepared as follows. Amphotericin B came as a liquid solution, 250 µg/ml. […] Therefore 0, 0.125, 0.25, 0.5, 1 and […] final concentration was used. Nystatin was stored it in ˜1 mg dry aliquots at −20 C, and was prepared at a concentration of 2 mg/ml in DMSO for dilution into Neilands' media. According to reported information, nystatin should be effective at 1.5 to 6.5 µg/ml; therefore, 0, 0.5, 1, 5, 10 and 50 µg/ml were used as the final concentrations. Hygromycin gold stock was in solution at 100 mg/ml, and 0, 25, 50, 100, 150 and 200 µg/ml were used as the final concentrations in Neilands' medium. Plates were incubated for 3 days at 37° C. with shaking.
To test for siderophores, 20 μL of a solution of 2 mM FeCl3 in 10 mM HCl was added to each well in the receiver plates and the A440 was recorded on a plate reader. […] An increase in A440 indicates a more intense orange-red colour that develops in the presence of ferrated siderophores. […] Because 3-day incubation produces conidia, shorter incubation periods may be preferable.
Three identical plates were set up: one filter plate and two sterile clear 96-well plates. The clear plates were used to score growth, and the filter plate was used to detect siderophores. Columns 1-6 contained Neilands' medium without citrate and amphotericin 0-2 at g/ml. Columns 7-12 contained Neilands' medium with citrate and amphotericin at […]. The rows were set up with A. fumigatus as described above, but two sets of each were set up to be in the two plates. The spores from the previous experiment were stored at −20° C. in PBS, in siliconized tubes, at 2×10^8 conidia/ml, to facilitate these experiments. Plates were incubated for 48 hours at 37° C. without shaking.
The filter plate was centrifuged at 1000×g for 10 minutes and the liquids caught in a clear non-sterile plate, to which FeCl3 was added. The plate was allowed to sit and develop orange colour, and was then read at 440 nm. The clear plates (one without Fe and one with Fe added to growth medium from the beginning) were read at 600 nm (A600). In the result, iron enhanced conidiation. Some wells of the filter plate were lightly conidiated and would not drain. These were hand pipetted.

A. fumigatus ATCC 13073 = experiment: Growth of A. fumigatus in MEM made iron limiting with 2,2′-dipyridyl; type: cell-based, Aspergillus fumigatus; settings: MEM (5 ml) with 250 μM 2,2′-dipyridyl; holo-/apotransferrin 25 μM, FeCl3 50 μM
From the text: The inventors have shown that holotransferrin but not apotransferrin supports the growth of A. fumigatus in iron-depleted medium. MEM was made iron limiting by the addition of the iron-chelator 2,2′-dipyridyl.

[2] = GA + FeCl3 + 10% human serum, desferrisiderophore 50 μM
[3] = 1 ml GA, 4 days 37° C., 5 μM FeCl3
[4] = 1 ml GA, 96 hours, FeCl3 5 μM or ferrated TAF 10 μM
[5] = 5 ml GA medium, 4 days 37° C., 5 μM FeCl3 or 10 μM TAF
[6] = 1 ml GA + 5 μM FeCl3 + 10% serum, 50 μM desferri-TAF or desferri-ferricrocin, 4 days

## CC(=O)N(O)CCCC1NC(=O)CNC(=O)CNC(=O)CNC(=O)C(CCCN(O)C(C)=O)NC(=O)C(CCCN(O)C(C)=O)NC1=O (stereo not drawn) [desferriferrichrome] (cyclo(GGG[ξOrn(N(OH)Ac)][ξOrn(N(OH)Ac)][ξOrn(N(OH)Ac)]))
Human holotransferrin
  Concentration at which complete absence of holotransferrin was observed: 5 mM

## CC(=O)NC1CCCN(O)C(=O)C=C(C)CCOC(=O)C(NC(C)=O)CCCN(O)C(=O)C=C(C)CCOC(=O)C(NC(C)=O)CCCN(O)C(=O)C=C(C)CCOC1=O (stereo not drawn) [desferri-TAF, Desferritriacetylfusarinine C]
Human holotransferrin
  Concentration able to remove some iron from holotransferrin: 500 µM
  Concentration at which complete absence of holotransferrin was observed: 5 mM
[1]; [2]
  Growth (mg dry weight) mean ± S.D., wild type: 10.1 ± 0.4 mg dry weight
A. fumigatus ΔsidA
  Restoration of growth of ΔsidA in the presence of human serum: restored to wild-type levels
A. fumigatus ΔsidA; [2]
  Growth (mg dry weight) mean ± S.D., ΔsidA: 12.3 ± 1.2 mg dry weight
A. fumigatus ΔsidA^R; [2]
  Growth (mg dry weight) mean ± S.D., ΔsidAR: 11.3 ± 0.3 mg dry weight

## C[C@@H]1[C@H](O)[C@@H](C)/C=C/C=C/CC/C=C/C=C/C=C/C=C/C(O[C@H]2O[C@H](C)[C@@H](O)[C@H](N)[C@@H]2O)CC2O[C@](O)(CC(O)C(O)CCC(O)CC(O)CC(O)CC(=O)O[C@H]1C)CC(O)C2C(=O)O (stereo partly drawn) [nystatin]
A. fumigatus 13073; nystatin 0.5 μg/ml, 100000 spores/ml
  A440 (ferrated siderophores): 0.341 and 0.414 and 0.359
A. fumigatus 13073; nystatin 0.5 μg/ml, 1000000 spores/ml
  A440 (ferrated siderophores): 0.416 and 0.382 and 0.232
A. fumigatus 13073; nystatin 1 μg/ml, 100000 spores/ml
  A440 (ferrated siderophores): 0.340 and 0.31 and 0.325
A. fumigatus 13073; nystatin 1 μg/ml, 1000000 spores/ml
  A440 (ferrated siderophores): 0.412 and 0.492 and 0.329
A. fumigatus 13073; nystatin 5 μg/ml, 100000 spores/ml
  A440 (ferrated siderophores): 0.048 and 0.042 and 0.044
A. fumigatus 13073; nystatin 5 μg/ml, 1000000 spores/ml
  A440 (ferrated siderophores): 0.042 and 0.043
A. fumigatus 13073; nystatin 10 μg/ml, 100000 spores/ml
  A440 (ferrated siderophores): 0.043 and 0.045 and 0.042
A. fumigatus 13073; nystatin 10 μg/ml, 1000000 spores/ml
  A440 (ferrated siderophores): 0.042 and 0.043 and 0.050
A. fumigatus 13073; nystatin 50 μg/ml, 100000 spores/ml
  A440 (ferrated siderophores): 0.048 and 0.052 and 0.051
A. fumigatus 13073; nystatin 50 μg/ml, 1000000 spores/ml
  A440 (ferrated siderophores): 0.048 and 0.051

## CC(=O)N(O)CCC[C@@H]1NC(=O)CNC(=O)[C@H](CO)NC(=O)CNC(=O)[C@H](CCCN(O)C(C)=O)NC(=O)[C@H](CCCN(O)C(C)=O)NC1=O [desferriferricrocin] (cyclo(GSG[Orn(N5-OH,N5-Ac)][Orn(N5-OH,N5-Ac)][Orn(N5-OH,N5-Ac)]))
Human holotransferrin
  Concentration able to remove some iron from holotransferrin: 500 µM
  Concentration at which complete absence of holotransferrin was observed: 5 mM
[1]; [2]
  Growth (mg dry weight) mean ± S.D., wild type: 9.7 ± 2.00 mg dry weight
A. fumigatus ΔsidA
  Restoration of growth of ΔsidA in the presence of human serum: restored to wild-type levels
A. fumigatus ΔsidA; [2]
  Growth (mg dry weight) mean ± S.D., ΔsidA: 11.1 ± 1.1 mg dry weight
A. fumigatus ΔsidA^R; [2]
  Growth (mg dry weight) mean ± S.D., ΔsidAR: 11.0 ± 1.2 mg dry weight

## [Cl][Fe]([Cl])[Cl] [FeCl3]
A. fumigatus ATCC 13073
  Mean mycelial dry wt after 96 h: 0.80^1 mg
[1]; [3]
  dry weight, parental: 7.8^1 mg
[1]; [4]
  Growth (mg dry weight) mean ± S.D., wild type: 6.5 ± 0.4 mg dry weight
[1]; [5]
  dry weight, parental: 44.3^1 mg
A. fumigatus ΔsidA; [3]
  dry weight, ΔsidA: 7.1^1 mg
A. fumigatus ΔsidA; [4]
  Growth (mg dry weight) mean ± S.D., ΔsidA: 1.4 ± 1.1 mg dry weight
A. fumigatus ΔsidA; [5]
  dry weight, ΔsidA: 47.4^1 mg
A. fumigatus ΔsidA^R; [4]
  Growth (mg dry weight) mean ± S.D., ΔsidAR: 7.5 ± 0.3 mg dry weight

## Apotransferrin: iron-free human transferrin
A. fumigatus ATCC 13073
  Mean mycelial dry wt after 96 h: 0.02^1 mg

## CC(=O)NC1CCCN(O)C(=O)/C=C(/C)CCOC(=O)C(NC(C)=O)CCCN(O)C(=O)/C=C(/C)CCOC(=O)C(NC(C)=O)CCCN(O)C(=O)/C=C(/C)CCOC1=O (stereo not drawn) [TAF, N′,N″,N′″-triacetylfusarinine C]
Human holotransferrin
  Affinity of iron removal from holotransferrin: comparable to that of ferrichrome
[1]; [6]
  dry weight, parental: 9.7^1 mg
[1]; [4]
  Growth (mg dry weight) mean ± S.D., wild type: 6.2 ± 0.5 mg dry weight
[1]; [5]
  dry weight, parental: 41^1 mg
A. fumigatus ΔsidA; [6]
  dry weight, ΔsidA: 7.2^1 mg
A. fumigatus ΔsidA; [4]
  Growth (mg dry weight) mean ± S.D., ΔsidA: 4.4 ± 1.5 mg dry weight
A. fumigatus ΔsidA; [5]
  dry weight, ΔsidA: 46^1 mg
A. fumigatus ΔsidA^R; [4]
  Growth (mg dry weight) mean ± S.D., ΔsidAR: 6.0 ± 0.1 mg dry weight
other
  Stability in human serum: stable in human serum

## CC(=O)N([O-])CCC[C@@H]1NC(=O)CNC(=O)[C@H](CO)NC(=O)CNC(=O)[C@H](CCCN([O-])C(C)=O)NC(=O)[C@H](CCCN([O-])C(C)=O)NC1=O.[Fe+3] [ferricrocin] (cyclo(GSG[Orn(N5-OH,N5-Ac)][Orn(N5-OH,N5-Ac)][Orn(N5-OH,N5-Ac)]))
Human holotransferrin
  Affinity of iron removal from holotransferrin: comparable to that of ferrichrome
[1]; [6]
  dry weight, parental: 11.1^1 mg
A. fumigatus ΔsidA; [6]
  dry weight, ΔsidA: 11.0^1 mg

## Holotransferrin: purified human iron-saturated transferrin
A. fumigatus ATCC 13073
  Mean mycelial dry wt after 96 h: 1.30^1 mg
